Test results from a melting point compilation (Tetko et al.; mined from patent text by program, amines drawn as free bases though some values may be those of a salt).

Row | Compound | melting point
1 | OCc1c[nH]c2c1ccc1c3ccccc3[nH]c12 | > 295 °C
2 | O=C(O)c1cccc(Cc2cc(Cl)cc(Cc3ccccc3O)c2O)c1O | 198 to 200 °C
3 | COC(=O)CCCC1C(=S)Nc2ccccc21 (stereo not given) | 132 to 134 °C
4 | CCOC(=O)N1CCC(Nc2nc3ncnc(Cl)c3n2Cc2ccc(F)cc2)CC1 | 127 °C
5 | COc1ccc(-c2c(-c3ccccc3)nc3n2Cc2ccccc2C3)cc1 | 183 to 185 °C
6 | COc1cc([N+](=O)[O-])c(C(=O)Cc2ccccc2)cc1O | 142 to 143 °C
7 | Cc1noc(-c2c(C)nc(C#Cc3ccccc3)n2C)n1 | 95 °C
8 | CC(=O)c1ccc(C2c3cc(NC(=O)CC(C)(C)C)c(C)c(C)c3OC2(C)C)cc1 (stereo not given) | 195 to 196 °C
9 | COC(=O)C1C=CCN2C(=O)C(CCI)(Cc3ccccc3)C(=O)N12 (stereo not given) | 90 to 92 °C
10 | CCCc1c(C(=O)NCc2ccc(-c3ccc(OCC(=O)O)c(Br)c3)cc2)cnn1-c1ccccc1 | 204 to 206 °C
11 | CCc1nnc(Cc2c(Cl)cncc2Cl)c2ccc(OC)cc12 | 136 to 138 °C
12 | CCSc1cc(=O)c2c(O)cc(OC)c(C3CCN(C)CC3O)c2o1 (stereo not given) | 60 °C
13 | CC(C)(C)OC(=O)Nc1ccc(-c2cccc(F)c2)cc1NC(=O)CC(=O)c1cccc(-n2ccnc2)c1 | 70 to 83 °C
14 | COC(=O)c1ccc2c(c1)C(=O)C(C)C(c1ccccc1)=N2 (stereo not given) | > 300 °C
15 | Cc1c(CC(=O)O)c2ccccc2n1-c1cc(Cl)nc(Cl)n1 | 205 to 207 °C
16 | Nc1ncc2cc(-c3c(Cl)cccc3Cl)c(=O)n(Cc3ccccc3)c2n1 | 220 to 222 °C
17 | CCCC(CCC)n1c(CC)nc2c1C(=O)N(C)C(CC)N2c1ccc(Cl)cc1Cl (stereo not given) | 116 to 118 °C
18 | CCOC(=O)Cn1c(-c2ccc(Cl)c(Cl)c2)nc2cccnc21 | 141 to 142 °C
19 | CC(C=O)Oc1ccc(Cl)cc1Cl (stereo not given) | 87 to 88 °C
20 | CN(C)CC1CCCCN1CC(=O)N1c2ccccc2NC(=O)c2c1ccn2C (stereo not given) | 163 to 165 °C
21 | CCC(CO)(CO)Nc1ncc2cc(Oc3ccc(F)cc3F)ccc2n1 | 110 to 113 °C
22 | CCOC(=O)c1cc(C#N)c(C)nc1NC | 103 to 105 °C
23 | CCCCCCOc1ccc(C=[N+]([O-])C(C)(C)C)cc1 | 69 °C
24 | CCc1cccc(CC)c1N(CCCC(=O)O)C(=O)CCN(C(C)=O)c1c(C)cccc1C | 110 to 111 °C
25 | OCCOCC(O)c1cccc2ccccc12 (stereo not given) | 91 to 92 °C

Row | Compound | melting point
26 | Cc1ccc(Sc2cncc3sc(C(N)=O)cc23)cc1 | 198 to 199 °C
27 | N=C(N)c1ccc(O)c([N+](=O)[O-])c1 | > 240 °C
28 | COc1ccc(C2(O)OC(=O)C(c3ccc4nsnc4c3)=C2Cc2cc(OC)c(OC3CCCC3)c(OC)c2)cc1 (stereo not given) | 40 to 41 °C
29 | Oc1c(Br)cc(-c2cccc3sc4c(Br)cccc4c23)cc1Br | 118 to 119 °C
30 | COc1ccc(-c2nn(C3CCCC3)c3c(F)cccc23)cc1 | 70 to 71 °C
31 | COc1ccc2c(Cc3ccco3)nnc(N3CCCC3)c2c1 | 148 to 149 °C
32 | C=CC(O)(C(CCCCOc1ccccc1)n1cncn1)C(C)(C)C (stereo not given) | 66 to 69 °C
33 | O=C(Cc1c(F)c(F)nc(F)c1Cl)OCc1ccccc1 | 87 to 92 °C
34 | Cn1nnnc1C=C(c1ccc(F)cc1)c1ccc(F)cc1 | 169 to 171 °C
35 | CCCCN1CN(C2CC(OC(=O)c3ccccc3C)C(COC(=O)c3ccccc3C)O2)C(=O)NC1=O (stereo not given) | 170 to 172 °C
36 | COc1ccc(Cc2cc3cccc(-c4cccc(C(=O)O)c4)c3o2)cc1OC | 122 to 123 °C
37 | CCOC(=O)c1cn(CC)c2nc(OC)c(N)cc2c1=O | 250 to 252 °C
38 | O=C(N[C@H]1CN(C(=O)NS(=O)(=O)N2CCN(NC(=O)OCc3ccccc3)C2=O)C1=O)OCc1ccccc1 | 75.7 to 116 °C
39 | CC(C)c1ccc(N(Cc2cnn(C)c2)C(=O)C2CCCc3c(O)cccc32)cc1 (stereo not given) | 215 °C
40 | CN(C)c1c(S(=O)C(F)(F)F)c(-c2ncon2)nn1-c1c(Cl)cc(C(F)(F)F)cc1Cl (stereo not given) | 82 to 84 °C
41 | C[C@@H](n1cnc2cc(N(C)C)ccc2c1=O)[C@](O)(Cn1cncn1)c1ccc(F)cc1F | 201 °C
42 | CNC(=O)c1cc(F)c(Cl)cc1Oc1cccc(OC)c1C | 127 to 128 °C
43 | CCCOc1cc(-n2c(=O)cc(C(F)(F)F)n(C)c2=O)c(F)cc1Cl | 103 to 104 °C
44 | COC(=O)CCn1cnc2c(Cl)ncnc21 | 93.5 °C
45 | CCCc1nccn1NCc1cc(C(C)(C)C)c(O)c(C(C)(C)C)c1 | 122 to 123 °C
46 | COC(=O)C1=Cc2cc(-c3ccc(OC(F)(F)F)cc3)ccc2S(=O)(=O)CC1 | 142 to 143 °C
47 | CCOC(=O)C(C)c1ccc(NC(C)=O)cc1 (stereo not given) | 94.5 to 95.5 °C
48 | COC(=O)c1cc(Cl)cc2c1OC(C)C(=O)N2 (stereo not given) | 186 to 189 °C
49 | Nc1ccc(Nc2c(NCc3ccccc3)cc(C(=O)O)cc2S(=O)(=O)Nc2ccc(N)cc2)cc1 | 238 °C
50 | C=CCOc1ccc(C(=O)C=Cc2ccc(OC)cc2OC)cc1 | 74.5 to 75 °C

Row | Compound | melting point
51 | Nc1cc([N+](=O)[O-])ccc1OC(F)(F)F | 90 to 91 °C
52 | O=C(C(=O)N1C(=O)CC[C@H]1C(=O)O)c1ccccc1 | 151 to 152 °C
53 | CC(C)(C)OC(=O)N1CCN(C(=O)c2nc3c(N)nc(N)nc3nc2N)CC1 | 245 to 250 °C
54 | CCOC(=O)C(C#N)=NC=C(N)c1ccccc1 | 139 to 140 °C
55 | C#Cc1cnn2c(C(F)(F)F)cc(-c3cccc(C(F)(F)F)c3)nc12 | 154 °C
56 | CCCc1nn(-c2ccc(C(F)(F)F)cn2)cc1CCCCOc1cccc(CC(=O)O)c1 | 96 to 97 °C
57 | CC(=O)c1c(O)cccc1OCC(O)COc1cc(C)ccc1C (stereo not given) | 104 to 106 °C
58 | CC(=O)OCC(COC(C)=O)OCn1cnc2c(=O)[nH]c(N)nc21 | 237 to 239 °C
59 | Oc1ccc(N2CCN(c3nccs3)CC2)cc1 | 170 °C
60 | Oc1ccc(OCc2ccccc2)c2c1OCCO2 | 131 °C
61 | COc1ccc(-c2cn(-c3cc4c(=O)n(NS(C)(=O)=O)c(=O)[nH]c4cc3C(F)(F)F)cn2)cc1 | 293 to 294 °C
62 | CC(=O)Nc1ccc(-c2cccc(C3=NCC(C)(C)c4ccc5c(c43)CC(C)(C)O5)c2)cc1 | 246 to 249 °C
63 | COc1cc2c(cc1S(C)(=O)=O)CCN(C(C)=O)CC2 | 159 to 162 °C
64 | O=C1C2CCCN2c2ncccc2N1Cc1ccncc1 (stereo not given) | 262 to 265 °C
65 | COC(=O)COc1ccc(C(=O)OCc2ccccc2)cc1 | 63 to 66 °C
66 | O=c1c(OCC2CC2)cn(-c2cccc(C(F)(F)F)c2)nc1-c1ccnn1-c1ccccc1 | 72 to 78 °C
67 | CCn1cc(C(=O)O)c(=O)c2cc(F)c(N3CCN(C)C(c4ccco4)C3)cc21 (stereo not given) | 209 to 212 °C
68 | CC(C)(O)CC(O)c1cccc(OCc2ccc3ccccc3n2)c1 (stereo not given) | 117 to 124 °C
69 | C[C@@H](O)CNC1=NS(=O)(=O)c2sc(Cl)cc2N1 | 210 to 211 °C
70 | Cn1c(=O)nc(-c2ccccc2)c2cc(Cl)sc21 | 136 to 140 °C
71 | Cc1nn(CCC(C)C)c(C)c1CC(=O)O | 135 to 136 °C
72 | COc1c(N2C[C@H]3[C@@H](F)CC[C@@]3(N)C2)c(F)cc2c(=O)c(C(=O)O)cn([C@@H]3C[C@@H]3F)c12 | 117 to 119 °C
73 | O=C1CCC(N2Cc3cc(CNC(=O)Nc4cccc(Oc5ccccn5)c4)ccc3C2=O)C(=O)N1 (stereo not given) | 298 to 300 °C
74 | Cc1ccc(CCc2n[nH]c3c2c(=O)n(-c2ccccc2)c2ncccc32)cc1 | 264 to 265 °C
75 | CN(C)C1(c2ccccc2)CCC(=CC(=O)NCCc2ccccc2)CC1 (stereo not given) | 153 to 155 °C

Row | Compound | melting point
76 | Cc1sc(N)nc1-c1ccc2c(c1)CC(=O)N2 | > 250 °C
77 | CC(=O)Nc1cc(C(=O)O)ccc1C(F)(F)F | 195 to 197 °C
78 | COc1ccc(-c2cc(C)cn2-c2ccc(S(N)(=O)=O)cc2)cc1F | 170 to 173 °C
79 | COc1cc(OC)cc(-c2ncoc2-c2ccc(OC)c(O)c2F)c1 | 168 to 172 °C
80 | CC(=O)OC1CSC(Oc2cccc(-c3ccncc3Cl)c2)C(OC(C)=O)C1OC(C)=O (stereo not given) | 169 to 171 °C
81 | COC(=O)C(N)(CF)Cc1ccc(O)cc1 (stereo not given) | 130 °C
82 | COCOc1cc(OC)ccc1C(=O)c1ccc(OCc2nc(-c3ccccc3)oc2C)cc1C | 107 to 108 °C
83 | Cc1cccc(NC(=O)NCC(=O)N(CC(=O)OC(C)(C)C)c2ccc3c(c2)OCO3)c1 | 142 °C
84 | CC(C)(C)OCc1cccc(-c2ccc3nc(-c4cccnc4)cn3c2)c1 | 220 to 222 °C
85 | CC(C)S(=O)(=O)c1cnc2c(c1)nc(CC(C)(C)C)n2CCN(C)C | 119 °C
86 | O=C1C(=O)c2ccccc2C2=C1SCC1(CCCCC1)O2 | 194 to 195 °C
87 | Cc1cnc(NCCc2ccccn2)c(=O)n1NC(=O)CCc1cc(C(F)(F)F)ccc1F | 181 to 184 °C
88 | CCOCCCCC(=O)c1ccc(S(C)=O)cc1 (stereo not given) | 69 to 71 °C
89 | CC(C)(C)OC(=O)N1CCN(c2ccc(NC(=O)Nc3cc(Cl)ccc3N)cc2)CC1 | 187 to 189 °C
90 | COC(=O)c1ccc(OC)c(C(F)(F)F)c1 | 77 to 79 °C
91 | O=C1N=NC(=O)c2c1[nH]c1cc(C(F)(F)F)ccc21 | 291 to 293 °C
92 | COc1ccc(-c2nccc3c(CC(=O)O)cccc23)cc1 | 210 to 211 °C
93 | Cc1c(C(F)(F)C(F)(F)F)oc2c(Br)cccc12 | 65 °C
94 | O=C(Nc1ccc(F)cc1F)N(Cc1ccccc1)CC1(c2ccccc2)CCCC1 | 119 to 122 °C
95 | CS(=O)(=O)N(CCCl)N(C(=O)NCCCl)S(C)(=O)=O | 96 to 97.5 °C
96 | COc1ccc2nccc(NC(=O)N3CCN(CCc4cnc5ccccc5n4)CC3)c2n1 | 138 to 140 °C
97 | CC(=O)NCCC1CCc2ccc3nc(CO)oc3c21 (stereo not given) | 132 to 134 °C
98 | CCCc1c(Cc2ccc(-c3ccccc3-c3nnn[nH]3)cc2)c(O)nc2ccnn12 | 260 °C
99 | CCN1C(=O)C2CCCN2Cc2ccccc21 (stereo not given) | 138 to 140 °C
100 | O=C1c2ccccc2S(=O)(=O)N1C(c1cccs1)c1nnnn1-c1ccccc1 (stereo not given) | 192 to 193 °C
